# Results published in patent US20260285850A1, “SUBSTITUTED OXAZOLIDINONES AND IMIDAZOLINONES AS HERBICIDES” (FMC CORPORATION, priority 2023, published 2026).
# Experiments:
# Format in all cases: in vivo
# [1] = system: ducksalad (Heteranthera limosa); assay: Test B flooded paddy test, visual plant response rating 0-100; conditions: 250 g ai/ha, Flood, applied to paddy water, evaluated after 13 days
# In short: (§1)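 Plants were grown to the 2-leaf stage, then pots were flooded to 3 cm above the soil and compound was applied directly to the paddy water, with that depth kept throughout.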
# [2] = system: sedge, umbrella (small-flower umbrella sedge, Cyperus difformis); assay: as above; conditions: 250 g ai/ha, Flood, applied to paddy water, evaluated after 13 days
# In short: as §1
# rice (Oryza sativa) = assay: as above; conditions: 250 g ai/ha, Flood, applied to paddy water, evaluated after 13 days
# In short: as §1
# [3] = system: barnyardgrass (Echinochloa crusgalli); assay: as above; conditions: 250 g ai/ha, Flood, applied to paddy water, evaluated after 13 days
# In short: as §1
# [4] = system: ryegrass, Italian (italian ryegrass, Lolium multiflorum); assay: Test A preemergence soil spray, visual injury rating 0-100; conditions: 10 days
# In short: (§2)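 Visual injury, scored 0-100 (100 = complete control) against untreated plants, 10 days after greenhouse treatment. Test chemicals in surfactant-containing non-phytotoxic solvent were applied in loam soil and sand, as a preemergence soil spray on seeds or postemergence to plants at the one- to two-leaf stage.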
# [5] = system: blackgrass (Alopecurus myosuroides); assay: as above; conditions: 10 days
# In short: as §2
# [6] = system: barnyardgrass (Echinochloa crus-galli); assay: as above; conditions: 10 days
# In short: as §2
# kochia (Bassia scoparia) [7] = assay: as above; conditions: 10 days
# In short: as §2
# soybean (Glycine max) [8] = assay: as above; conditions: 10 days
# In short: as §2
# [9] = system: palmer (palmer amaranth, palmer pigweed, Amaranthus palmeri); assay: as above; conditions: 10 days
# In short: as §2
# [10] = system: green foxtail (Setaria viridis); assay: as above; conditions: 10 days
# In short: as §2
# corn (Zea mays) [11] = assay: as above; conditions: 10 days
# In short: as §2
# [12] = system: wheat (Triticum aestivum); assay: as above; conditions: 10 days
# In short: as §2
# [13] = system: oat, wild (wild oat, Avena fatua); assay: as above; conditions: 10 days
# In short: as §2
# [14] = system: ragweed (common ragweed, Ambrosia artemisiifolia); assay: as above; conditions: 10 days
# In short: as §2
# [15] = system: horseweed (Erigeron canadensis); assay: Test A postemergence application, visual injury rating 0-100
# In short: as §2
# [16] = system: ryegrass, Italian (italian ryegrass, Lolium multiflorum); assay: as above
# In short: as §2
# [17] = system: blackgrass (Alopecurus myosuroides); assay: as above
# In short: as §2
# [18] = system: barnyardgrass (Echinochloa crus-galli); assay: as above
# In short: as §2
# kochia (Bassia scoparia) [19] = assay: as above
# In short: as §2
# soybean (Glycine max) [20] = assay: as above
# In short: as §2
# [21] = system: palmer (palmer amaranth, palmer pigweed, Amaranthus palmeri); assay: as above
# In short: as §2
# [22] = system: green foxtail (Setaria viridis); assay: as above
# In short: as §2
# corn (Zea mays) [23] = assay: as above
# In short: as §2
# [24] = system: wheat (Triticum aestivum); assay: as above
# In short: as §2
# [25] = system: oat, wild (wild oat, Avena fatua); assay: as above
# In short: as §2
# [26] = system: ragweed (common ragweed, Ambrosia artemisiifolia); assay: as above
# In short: as §2
# [27] = system: galium (catchweed bedstraw, Galium aparine); assay: as above
# In short: as §2
# [28] = 62 g ai/ha, 0 = no effect, 100 = complete control
# [29] = 62 g ai/ha, postemergence, 10 days, 0 = no effect, 100 = complete control
# [30] = Postemergence, 16 g ai/ha, greenhouse 10 days, 0 no effect, 100 complete control
structure (smiles),measurement,setting,value
COC(=O)C1C=CC(NC(=O)C2(C)CN(c3cc(Cl)c(F)c(Cl)c3)C(=O)O2)C1 (stereo not shown) [Compound 150],"Plant response rating, Ducksalad (0 to 100 scale, 0 is no effect and 100 is complete control)",[1],85
same,"Plant response rating, Sedge, Umbrella (0 to 100 scale, 0 is no effect and 100 is complete control)",[2],75
same,"Plant response rating, Rice (0 to 100 scale, 0 is no effect and 100 is complete control)",rice (Oryza sativa),30
same,"Plant response rating, Barnyardgrass (0 to 100 scale, 0 is no effect and 100 is complete control)",[3],65
same,"Ryegrass, Italian plant response rating","[4]; 16 g ai/ha, 0 to 100 scale",10
same,"Ryegrass, Italian plant response rating (0-100)",[4]; [28],50
same,Blackgrass plant response rating,"[5]; 16 g ai/ha, 0 to 100 scale",0
same,Blackgrass plant response rating (0-100),[5]; [28],50
same,Barnyardgrass plant response rating,"[6]; 16 g ai/ha, 0 to 100 scale",0
same,Barnyardgrass plant response rating (0-100),[6]; [28],90
same,Kochia plant response rating,"kochia (Bassia scoparia) [7]; 16 g ai/ha, 0 to 100 scale",20
same,Kochia plant response rating (0-100),kochia (Bassia scoparia) [7]; [28],90
same,Soybean plant response rating,"soybean (Glycine max) [8]; 16 g ai/ha, 0 to 100 scale",0
same,Soybean plant response rating (0-100),soybean (Glycine max) [8]; [28],0
same,"Pigweed, Palmer plant response rating","[9]; 16 g ai/ha, 0 to 100 scale",10
same,"Pigweed, Palmer plant response rating (0-100)",[9]; [28],90
same,"Foxtail, Green plant response rating","[10]; 16 g ai/ha, 0 to 100 scale",0
same,"Foxtail, Green plant response rating (0-100)",[10]; [28],90
same,Corn plant response rating,"corn (Zea mays) [11]; 16 g ai/ha, 0 to 100 scale",0
same,Corn plant response rating (0-100),corn (Zea mays) [11]; [28],70
same,Wheat plant response rating,"[12]; 16 g ai/ha, 0 to 100 scale",0
same,Wheat plant response rating (0-100),[12]; [28],80
same,"Oat, Wild plant response rating","[13]; 16 g ai/ha, 0 to 100 scale",0
same,"Oat, Wild plant response rating (0-100)",[13]; [28],10
same,Ragweed plant response rating,"[14]; 16 g ai/ha, 0 to 100 scale",0
same,Ragweed plant response rating (0-100),[14]; [28],0
same,Horseweed plant response rating (0-100),[15]; [29],60
same,Horseweed plant response rating (0 to 100 scale),[15]; [30],20
same,"Ryegrass, Italian plant response rating (0-100)",[16]; [29],80
same,"Ryegrass, Italian plant response rating (0 to 100 scale)",[16]; [30],50
same,Blackgrass plant response rating (0-100),[17]; [29],90
same,Blackgrass plant response rating (0 to 100 scale),[17]; [30],80
same,Barnyardgrass plant response rating (0-100),[18]; [29],100
same,Barnyardgrass plant response rating (0 to 100 scale),[18]; [30],90
same,Kochia plant response rating (0-100),kochia (Bassia scoparia) [19]; [29],70
same,Kochia plant response rating (0 to 100 scale),kochia (Bassia scoparia) [19]; [30],20
same,Soybean plant response rating (0-100),soybean (Glycine max) [20]; [29],70
same,Soybean plant response rating (0 to 100 scale),soybean (Glycine max) [20]; [30],60
same,"Pigweed, Palmer plant response rating (0-100)",[21]; [29],60
same,"Pigweed, Palmer plant response rating (0 to 100 scale)",[21]; [30],40
same,"Foxtail, Green plant response rating (0-100)",[22]; [29],90
same,"Foxtail, Green plant response rating (0 to 100 scale)",[22]; [30],20
same,Corn plant response rating (0-100),corn (Zea mays) [23]; [29],100
same,Corn plant response rating (0 to 100 scale),corn (Zea mays) [23]; [30],100
same,Wheat plant response rating (0-100),[24]; [29],90
same,Wheat plant response rating (0 to 100 scale),[24]; [30],70
same,"Oat, Wild plant response rating (0-100)",[25]; [29],90
same,"Oat, Wild plant response rating (0 to 100 scale)",[25]; [30],60
same,Ragweed plant response rating (0-100),[26]; [29],50
same,Ragweed plant response rating (0 to 100 scale),[26]; [30],0
same,Galium plant response rating (0-100),[27]; [29],80
same,Galium plant response rating (0 to 100 scale),[27]; [30],70
